{"source": "paper PMC7571068", "about": "“Antiproliferative and Pro-Apoptotic Effect of Uvaol in Human Hepatocarcinoma HepG2 Cells by Affecting G0/G1 Cell Cycle Arrest, ROS Production and AKT/PI3K Signaling Pathway” (Molecules, 2020)", "key": {"HepG2 cells [1]": {"tested_on": "HepG2 cells", "design": "method as in PMID 26370984", "conditions": "HepG2, 72 h; cited from earlier work"}, "HepG2 line": {"tested_on": "HepG2 line", "design": "method as in PMID 26151733", "conditions": "HepG2, 22.11 μg/mL, same phase = G0/G1; cited from earlier work"}, "HepG2 cells [2]": {"tested_on": "HepG2 cells", "assay": "Muse Annexin V & Dead Cell apoptosis assay", "type": "cell-based, human", "conditions": "HepG2, staurosporine 1 μg/mL (positive control)", "protocol": "(§1) A total of 1.5 × 10^5 cells were seeded per well in 24-well plates for each cell line (quadruplicates for three different populations of each cell line). […] Negative control populations were incubated only with the appropriate culture medium. The samples were analyzed in the Muse^TM Cell Analyzer (Merck-Millipore®, Burlington, MA, USA). Phosphatidylserine (PS) is a phospholipid that is usually found in the inner half of the cytoplasmic membrane, but is outsourced when loss of integrity occurs in the apoptosis process. The method is based on the recognition and binding to the PS exposed by annexin V protein, labeled with a fluorescent substance to detect the interaction and quantify it. We used the Muse^TM Annexin V & Dead Cell kit purchased from Millipore (Billerica, MA, USA), which provides the percentage of viable cells, apoptotic and affected by necrosis."}, "WRL68 cells": {"tested_on": "WRL68 cells", "assay": "Muse Annexin V & Dead Cell apoptosis assay", "type": "cell-based, human", "conditions": "WRL68, staurosporine 1 μg/mL (positive control)", "protocol": "as §1"}}, "data": [{"smiles": "CC1(C)CC[C@]2(C(=O)O)CC[C@]3(C)C(=CC[C@@H]4[C@@]5(C)C[C@@H](O)[C@H](O)C(C)(C)[C@@H]5CC[C@]43C)[C@@H]2C1", "note": "[maslinic acid]", "values": [{"measurement": "IC50", "setting": "HepG2 cells [1]", "value": 47, "unit": "mg/L"}]}, {"smiles": "CC1(C)CC[C@]2(C(=O)O)CC[C@]3(C)C(=CC[C@@H]4[C@@]5(C)CC[C@H](O)C(C)(C)[C@@H]5CC[C@]43C)[C@@H]2C1", "note": "[oleanolic acid]", "values": [{"measurement": "cell cycle arrest", "setting": "HepG2 line", "value": "arrest in the same phase of the cycle"}]}, {"smiles": "CN[C@@H]1C[C@H]2O[C@@](C)([C@@H]1OC)n1c3ccccc3c3c4c(c5c6ccccc6n2c5c31)C(=O)NC4", "note": "[staurosporine, reference compound]", "values": [{"measurement": "change in apoptotic cells vs control", "setting": "HepG2 cells [2]", "value": "did not lead to an increase in apoptotic cells"}, {"measurement": "change in number of apoptotic and necrotic cells vs control", "setting": "WRL68 cells", "value": "equally significant increase"}, {"measurement": "change in number of viable cells vs control", "setting": "WRL68 cells", "value": "significant decrease"}]}]}
